In assay [1] the target is T1, HCV NS3/4A protease complex (BMS strain, genotype 1a) (Hepatitis C virus genotype 1a, UniProt P27958, C1454S).
T1 construct: DNA encoding the recombinant HCV NS3/4A protease complex (amino acids 1027 to 1711) for these strains; inferred from the pET21b vector and Ni-NTA purification; made in house; host or cells: Escherichia coli BL21 (DE3), pET21b
Description: Recombinant HCV NS3/4A protease complex FRET peptide assay, BMS strain. The following applies: IC50 range, NS3/4A BMS Strain. Format: biochemical. Summed up:
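Recombinant NS3/4A complex (aa 1027–1711) with C-terminal three-lysine tail, C1711G and C1454S, expressed in E. coli BL21(DE3) and purified by Ni-NTA then Superdex-S200. Inhibition of the complex from each strain measured in vitro by FRET peptide cleavage.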

In assay [2] the test system is HCV replicon in Huh7 cells. In words: HCV replicon cell-based assay (FRET). The following applies: Hepatitis C virus. Summed up: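 Huh7 cells stably carrying a genotype 1b HCV replicon (IRES-neo-EMCV-IRES-NS3-NS5B) were treated with compound for 4 days at 37 °C in 0.5% DMSO final. Lysates containing 10 μM FRET peptide RET S1 were read kinetically at 340/490 nm to give NS3 protease activity, from which EC50 was derived.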

[3] abbreviates: Huh-7, HCV replicon, read-out: EC50 range.

Where two headings read alike, the source gives them in different places.

T1 sequence (P27958 1658-1714, looked up, stated change not applied): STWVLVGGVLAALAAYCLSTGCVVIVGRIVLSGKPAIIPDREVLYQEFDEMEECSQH
T1 sequence (P27958 1027-1657, looked up, stated change not applied): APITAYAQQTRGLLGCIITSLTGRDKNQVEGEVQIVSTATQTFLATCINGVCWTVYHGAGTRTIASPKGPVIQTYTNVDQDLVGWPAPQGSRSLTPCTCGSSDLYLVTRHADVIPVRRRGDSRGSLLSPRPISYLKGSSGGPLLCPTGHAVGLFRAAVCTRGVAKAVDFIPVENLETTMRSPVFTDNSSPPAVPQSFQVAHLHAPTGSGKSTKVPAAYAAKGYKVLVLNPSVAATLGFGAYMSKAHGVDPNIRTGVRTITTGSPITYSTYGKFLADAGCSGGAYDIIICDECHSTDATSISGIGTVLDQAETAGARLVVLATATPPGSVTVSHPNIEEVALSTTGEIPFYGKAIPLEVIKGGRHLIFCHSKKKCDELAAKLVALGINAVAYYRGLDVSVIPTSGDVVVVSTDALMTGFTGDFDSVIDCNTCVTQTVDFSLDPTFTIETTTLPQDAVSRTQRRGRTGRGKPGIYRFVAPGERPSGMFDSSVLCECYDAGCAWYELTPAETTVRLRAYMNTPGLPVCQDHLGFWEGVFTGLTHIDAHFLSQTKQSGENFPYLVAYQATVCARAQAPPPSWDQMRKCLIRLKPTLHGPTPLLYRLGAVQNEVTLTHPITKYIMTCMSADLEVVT

Consider `C=C[C@@H]1C[C@]1(NC(=O)[C@@H]1C[C@@H](Oc2ccnc3cc(Cl)ccc23)CN1C(=O)[C@@H](NC(=O)OC1CCCC1)C(C)(C)C)C(=O)NS(=O)(=O)C1(CC2CC2)CC1` [Compound 66, (1-{4-(7-Chloro-quinolin-4-yloxy)-2-[1-(1-cyclopropylmethyl-cyclopropanesulfonylaminocarbonyl)-2-vinyl-cyclopropylcarbamoyl]-pyrrolidine-1-carbonyl}-2,2-dimethyl-propyl)-carbamic acid cyclopentyl ester], for which, in assay [1], the IC50 – broadly, the concentration at which inhibition is half-maximal – was < 0.05 µM. In addition, the EC50 (as a rule, the concentration that produces a half-maximal response) in assay [2] (setting [3]) lay in the range of 0.05 to 0.5 µM.
In the same order, the values of `C=CCC1(S(=O)(=O)NC(=O)[C@@]2(NC(=O)[C@@H]3C[C@@H](Oc4ccnc5cc(Cl)ccc45)CN3C(=O)[C@@H](NC(=O)OC3CCCC3)C(C)(C)C)C[C@H]2C=C)CC1` [Compound 67, {1-[2-[1-(1-Allyl-cyclopropanesulfonylaminocarbonyl)-2-vinyl-cyclopropylcarbamoyl]-4-(7-chloro-quinolin-4-yloxy)-pyrrolidine-1-carbonyl]-2,2-dimethyl-propyl}-carbamic acid cyclopentyl ester] are 0.05 to 0.5 µM and 0.05 to 0.5 µM.
On to `C=C[C@@H]1C[C@]1(NC(=O)[C@@H]1C[C@@H](Oc2cc(C3CC3)nc3cc(OC)ccc23)CN1C(=O)[C@@H](NC(=O)OC(C)(C)C)C(C)(C)C)C(=O)NS(=O)(=O)C1(Cc2ccccc2)CC1` [Compound 68, BOCNH—P3(L-t-BuGly)-P2[(4R)-(2-cyclopropyl-7-methoxyquinoline-4-oxo)-S-proline]-P1(1R,2S Vinyl Acca)-CONHSO2(1-benzylclopropan-1-yl)], for which the IC50 in assay [1] was < 0.05 µM. Moreover, in assay [2] (Huh-7, read-out: EC50 range), the 50% effective concentration (EC50) was 0.05 to 0.5 µM.
In the case of `C=C[C@@H]1C[C@]1(NC(=O)[C@@H]1C[C@@H](Oc2cc(C3CC3)nc3cc(OC)ccc23)CN1C(=O)[C@@H](NC(=O)OC(C)(C)C)C(C)(C)C)C(=O)NS(=O)(=O)C1(CC#CCC)CC1` [Compound 69, (1-{4-(2-Cyclopropyl-7-methoxy-quinolin-4-yloxy)-2-[1-(1-pent-2-ynyl-cyclopropanesulfonylaminocarbonyl)-2-vinyl-cyclopropylcarbamoyl]-pyrrolidine-1-carbonyl}-2,2-dimethyl-propyl)-carbamic acid tert-butyl ester], the IC50 in assay [1] was < 0.05 µM. Further, the EC50 in assay [2] (setting [3]) is < 0.05 µM.
For the compound `C=C[C@@H]1C[C@]1(NC(=O)[C@@H]1C[C@@H](Oc2cc(C3CC3)nc3cc(OC)ccc23)CN1C(=O)[C@@H](NC(=O)OC(C)(C)C)C(C)(C)C)C(=O)NS(=O)(=O)C1(CC2CC2)CC1` [Compound 70, (1-{4-(2-Cyclopropyl-7-methoxy-quinolin-4-yloxy)-2-[1-(1-cyclopropylmethyl-cyclopropanesulfonylaminocarbonyl)-2-vinyl-cyclopropylcarbamoyl]-pyrrolidine-1-carbonyl}-2,2-dimethyl-propyl)-carbamic acid tert-butyl ester], in assay [1], the IC50 was < 0.05 µM. Moreover, the EC50 in assay [2] (setting [3]) is < 0.05 µM.
As to `COc1ccc2c(O[C@@H]3C[C@@H](C(=O)NC4(C(=O)NS(=O)(=O)C5([Si](C)(C)C)CC5)CC4)N(C(=O)[C@@H](NC(=O)OC(C)(C)C)C(C)(C)C)C3)cc(-c3ccccc3)nc2c1` [Compound 71], the IC50 in assay [1] was 0.05 to 0.5 µM. In addition, the EC50 in assay [2] (setting [3]) fell in the range of 0.5 to 5 µM.
For the compound `COc1ccc2c(O[C@@H]3C[C@@H](C(=O)NC4(C(=O)NS(=O)(=O)C5(C(=O)Nc6ccccc6)CC5)CC4)N(C(=O)[C@@H](NC(=O)OC(C)(C)C)C(C)(C)C)C3)cc(-c3ccccc3)nc2c1` [Compound 72, (1-{4-(7-Methoxy-2-phenyl-quinolin-4-yloxy)-2-[1-(1-phenylcarbamoyl-cyclopropanesulfonylaminocarbonyl)-cyclopropylcarbamoyl]-pyrrolidine-1-carbonyl}-2,2-dimethyl-propyl)-carbamic acid tert-butyl ester], the IC50 in assay [1] lay in the range of 0.5 to 5 µM. Further, the EC50 in assay [2] (setting [3]) is 5 to 50 µM.
In the same order, the values of `COc1ccc2c(O[C@@H]3C[C@@H](C(=O)NC4(C(=O)NS(=O)(=O)C5(Cc6ccccc6)CC5)CC4)N(C(=O)[C@@H](NC(=O)OC(C)(C)C)C(C)(C)C)C3)cc(-c3ccccc3)nc2c1` [Compound 74, {1-[2-[1-(1-Benzyl-cyclopropanesulfonylaminocarbonyl)-cyclopropylcarbamoyl]-4-(7-methoxy-2-phenyl-quinolin-4-yloxy)-pyrrolidine-1-carbonyl]-2,2-dimethyl-propyl}-carbamic acid tert-butyl ester] are 0.5 to 5 µM and 5 to 50 µM.
In the same order, the values of `C=CCC1(S(=O)(=O)NC(=O)C2(NC(=O)[C@@H]3C[C@@H](Oc4cc(-c5ccccc5)nc5cc(OC)ccc45)CN3C(=O)[C@@H](NC(=O)OC(C)(C)C)C(C)(C)C)CC2)CC1` [Compound 75, {1-[2-[1-(1-Allyl-cyclopropanesulfonylaminocarbonyl)-cyclopropylcarbamoyl]-4-(7-methoxy-2-phenyl-quinolin-4-yloxy)-pyrrolidine-1-carbonyl]-2,2-dimethyl-propyl}-carbamic acid tert-butyl ester] are < 0.05 µM and 0.5 to 5 µM.
In the same order, the values of `COc1ccc2c(O[C@@H]3C[C@@H](C(=O)NC4(C(=O)NS(=O)(=O)C5(C6=CCCCC6)CC5)CC4)N(C(=O)[C@@H](NC(=O)OC(C)(C)C)C(C)(C)C)C3)cc(-c3ccccc3)nc2c1` [Compound 76, {1-[2-[1-(1-Cyclohex-1-enyl-cyclopropanesulfonylaminocarbonyl)-cyclopropylcarbamoyl]-4-(7-methoxy-2-phenyl-quinolin-4-yloxy)-pyrrolidine-1-carbonyl]-2,2-dimethyl-propyl}-carbamic acid tert-butyl ester] are 0.05 to 0.5 µM and 0.5 to 5 µM.
As for `C=C[C@@H]1C[C@]1(NC(=O)[C@@H]1C[C@@H](Oc2cc(-c3nc(C(C)C)cs3)nc3cc(OC)ccc23)CN1C(=O)[C@@H](NC(=O)OC(C)(C)C)C(C)(C)C)C(=O)OS(=O)(=O)C1(CCC)CC1` [Compound 77], in assay [1], the IC50 was < 0.05 µM. Besides, in assay [2] (setting [3]), the EC50 is < 0.05 µM.
With `C=C[C@@H]1C[C@]1(NC(=O)[C@@H]1C[C@@H](Oc2cc(-c3csc(NC(C)C)n3)nc3cc(OC)ccc23)CN1C(=O)[C@@H](NC(=O)OC(C)(C)C)C(C)(C)C)C(=O)NS(=O)(=O)C1(CC2CC2)CC1` [Compound 80, (1-{2-[1-(1-Cyclopropylmethyl-cyclopropanesulfonylaminocarbonyl)-2-vinyl-cyclopropylcarbamoyl]-4-[2-(2-isopropylamino-thiazol-4-yl)-7-methoxy-quinolin-4-yloxy]-pyrrolidine-1-carbonyl}-2,2-dimethyl-propyl)-carbamic acid tert-butyl ester], the IC50 in assay [1] was < 0.05 µM. For the same compound, in assay [2] (setting [3]), the half-maximal effective concentration (EC50) was in the range of 0.05 to 0.5 µM.
Turning to `C=C[C@@H]1C[C@]1(NC(=O)[C@@H]1C[C@@H](Oc2cc(-c3ccccc3)nc3cc(OC)ccc23)CN1C(=O)[C@@H](NC(=O)OC1(C(=O)OCC)CC1)C(C)(C)C)C(=O)NS(=O)(=O)C1(Cc2ccccc2)CC1` [Compound 81], the IC50 in assay [1] was in the range of 0.05 to 0.5 µM. Further, in assay [2] (Huh-7, read-out: EC50 range), the EC50 lay in the range of 0.05 to 0.5 µM.
Consider `C=C[C@@H]1C[C@]1(NC(=O)[C@@H]1C[C@@H](Oc2cc(-c3ccccc3)nc3cc(OC)ccc23)CN1C(=O)[C@@H](NC(=O)Oc1ccc(C)cc1)C(C)(C)C)C(=O)NS(=O)(=O)C1(Cc2ccccc2)CC1` [Compound 100], for which, in assay [1], the IC50 was 0.05 to 0.5 µM. Further, the EC50 in assay [2] (setting [3]) was in the range of 0.5 to 5 µM.
In the same order, the values of `C=C[C@@H]1C[C@]1(NC(=O)[C@@H]1C[C@@H](Oc2cc(-c3ccccc3)nc3cc(OC)ccc23)CN1C(=O)[C@@H](NC(=O)Oc1ccccc1)C(C)(C)C)C(=O)NS(=O)(=O)C1(Cc2ccccc2)CC1` [Compound 101] are 0.05 to 0.5 µM and 0.5 to 5 µM.
As to `C=C[C@@H]1C[C@]1(NC(=O)[C@@H]1C[C@@H](Oc2cc(-c3ccccc3)nc3cc(OC)ccc23)CN1C(=O)[C@@H](NC(=O)Oc1ccc(F)cc1)C(C)(C)C)C(=O)NS(=O)(=O)C1(Cc2ccccc2)CC1` [Compound 102], the IC50 in assay [1] lay in the range of 0.05 to 0.5 µM. In addition, in assay [2] (setting [3]), the concentration giving a half-maximal response (EC50) is 0.5 to 5 µM.
In the same order, the values of `C=C[C@@H]1C[C@]1(NC(=O)[C@@H]1C[C@@H](Oc2cc(-c3ccccc3)nc3cc(OC)ccc23)CN1C(=O)[C@@H](NC(=O)Oc1ccc(OC)cc1)C(C)(C)C)C(=O)NS(=O)(=O)C1(Cc2ccccc2)CC1` [Compound 103] are 0.05 to 0.5 µM and 0.05 to 0.5 µM.
In the case of `C=C[C@@H]1C[C@]1(NC(=O)[C@@H]1C[C@@H](Oc2cc(-c3ccccc3)nc3cc(OC)ccc23)CN1C(=O)[C@@H](NC(=O)OCCOC)C(C)(C)C)C(=O)NS(=O)(=O)C1(Cc2ccccc2)CC1` [Compound 104], the IC50 in assay [1] fell in the range of 0.05 to 0.5 µM. Further, the half-maximal effective concentration (EC50) in assay [2] (setting [3]) is 0.5 to 5 µM.
In the same order, the values of `C=C[C@@H]1C[C@]1(NC(=O)[C@@H]1C[C@@H](Oc2cc(-c3ccccc3)nc3cc(OC)ccc23)CN1C(=O)[C@@H](NC(=O)OCC(C)(C)C)C(C)(C)C)C(=O)NS(=O)(=O)C1(Cc2ccccc2)CC1` [Compound 105] are < 0.05 µM and 0.05 to 0.5 µM.
In the same order, the values of `C=C[C@@H]1C[C@]1(NC(=O)[C@@H]1C[C@@H](Oc2cc(-c3ccccc3)nc3cc(OC)ccc23)CN1C(=O)[C@@H](NC(=O)OCCF)C(C)(C)C)C(=O)NS(=O)(=O)C1(Cc2ccccc2)CC1` [Compound 106] are < 0.05 µM and 0.05 to 0.5 µM.
In the same order, the values of `C=C[C@@H]1C[C@]1(NC(=O)[C@@H]1C[C@@H](Oc2cc(-c3ccccc3)nc3cc(OC)ccc23)CN1C(=O)[C@@H](NC(=O)Oc1ccccc1OC)C(C)(C)C)C(=O)NS(=O)(=O)C1(Cc2ccccc2)CC1` [Compound 107] are 0.05 to 0.5 µM and 0.5 to 5 µM.

For the origin of these results see patent publication US6878722B2, “Substituted cycloalkyl P1′ hepatitis C virus inhibitors” (Bristol-Myers Squibb Company, priority 2002, dated 2005).
